In patent publication US7416741B2, “Copper lowering treatment of inflammatory and fibrotic diseases” (The Regents of the University of Michigan, priority 2002, dated 2008):

Test system: Cp
Test: Serum Cp in the Con A mouse model
Assay type: in vivo
Details: Ex 5 Exp 1; after fourth Con A injection
Excerpt: Twenty-four hours after each of the first three injections, one mouse from each group was bled, and serum ALT measured. In this experiment, TM was started in the TM treated mice before the first Con A injection. After the fourth injection of Con A, all the mice were bled for ALT and Cp measurements and the experiment terminated. The Cp levels in TM treated mice were 25-50% of non-TM treated animals.

[SH-].[SH-].[S]=[Mo]=[S] [TM, tetrathiomolybdate]
Cp levels in TM treated mice relative to non-TM treated animals: 25-50%
